Like-named read-outs stand apart in the source and are kept apart here.
Tested on: Bacillus sp. A30-1 ATCC No. 53841 thermostable lipase
Conditions: 30° C., peroxide removed by dialysis before assay; for residual activity (of the original activity) after incubation with hydrogen peroxide: 0.5% hydrogen peroxide
Procedure: Lipase production was routinely assayed by monitoring the fatty acid released from corn oil. The assay is based on the fact that the dye Rhodamine 6G in benzene solution reacts with an acid to form a chromophore which can be spectrophotometrically quantified. One tenth mL of cell free culture broth (obtained by removing cells by centrifugation) was mixed with 0.02 mL of a 25% corn oil solution in 100 mM Tris-Hcl buffer (pH 9.5) and then incubated at 60° C. for 1 hr. After appropriate time the reaction was stopped with the addition of 0.1N HCl in 95% ethanol. The resulting fatty acids were extracted with petroleum ether, and evaporated to dryness under vacuum. Subsequently, diluted Rhodamine 6G stock solution was added. After fifteen minutes at room temperature the absorbance of the resulting reaction mixture was read at 515 nm. One unit of lipase is defined as the amount that will liberate 1 μmole of fatty acid per hour under the assay condition.
To an aliquot of enzyme solution containing a known amount of activity, different amounts of hydrogen peroxide were added to final concentration of 0.5, 1, 2, and 4% respectively. These were kept at 30° C. for different periods of time. Then hydrogen peroxide contained in enzyme solution was eliminated by dialysis against water. Residual activities were measured by the analytical methods described above.

OO [hydrogen peroxide]
residual activity (of the original activity) after incubation with hydrogen peroxide (1 hr): 100%
residual activity (of the original activity) after incubation with hydrogen peroxide (19 hrs): 60%
residual activity after incubation with hydrogen peroxide (4% hydrogen peroxide, 5 hrs): 75%

— patent publication US5093256A, “Essentially purified, thermostable and alkalophilic lipase from Bacillus Sp. A30-1 ATCC 53841” (priority 1989, dated 1992)
